Reference: patent US20220282217A1, “COMPOSITIONS AND METHODS FOR PREPARING T CELL COMPOSITIONS AND USES THEREOF” (priority 2019, published 2022)
Read-outs that look alike come from different tables or passages of the source. Where a SMILES comes first, the peptide text is derived from it.

Assays:
HLA-B07.02 = HLA-B07.02 (Homo sapiens, UniProt P01889); assay: Class I MHC peptide binding affinity (displacement of radiolabeled reference peptide)
HLA-A01.01 = HLA-A01.01 (Homo sapiens, UniProt P04439, A114D/A174V/A182V/D101N/D185E/E176A/E190D/L180R/Q94H/R68K/S129P/T187R/V100A/V91M/W191G); assay: as above
How it was run: (§1)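 Read-out: radioactivity of reference peptide retained on MHCI, separated from free label by gel-filtration size exclusion. Competing peptides are titrated against the preformed complexes and incubated two days beforehand.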

HLA-A02.01 [1] = target: HLA-A02.01 (Homo sapiens, UniProt P04439, D140Y/D185E/D98H/E176V/E277Q/G131W/G231S/I119V/I121R/I166T/I218V/L300P/L318F/N151K/N90K/P208A/P217A/Q86G/Q94H/R138H/R169H/T345S); assay: as above
How it was run: as §1

HLA-A02.01 [2] = target: T1, HLA-A02.01 (Homo sapiens, UniProt P04439, D140Y/D185E/D98H/E176V/E277Q/G131W/G231S/I119V/I121R/I166T/I218V/N151K/N90K/P208A/P217A/Q86G/Q94H/R138H/R169H); assay: Class I MHC peptide binding stability (pMHC-I dissociation, 125I-labeled light chain); settings: for Stability (T1/2 (h)): allele A02.01
T1 construct: made in house; host or cells: E. coli

HLA-A24.02 = assay: Class I MHC peptide binding affinity (displacement of radiolabeled reference peptide); set-up: species or system human; settings: allele A24.02; read-out: Observed Affinity (IC50; (nM))
[3] = Allele B07.02, read-out: Observed Affinity (IC50, (nM))
[4] = allele A01.01, read-out: Observed Affinity (IC50, (nM))
[5] = allele A02.01, read-out: Observed Affinity (IC50, (nM))

Work on `C[C@H](NC(=O)[C@H](C)NC(=O)[C@H](CCCNC(=N)N)NC(=O)[C@@H]1CCCN1C(=O)[C@@H]1CCCN1C(=O)[C@H](CCCNC(=N)N)NC(=O)[C@@H]1CCCN1C(=O)[C@@H]1CCCN1C(=O)CN)C(=O)N[C@@H](CS)C(=O)O` (H-GPPRPPRAAC-OH; N-terminus and C-terminus assumed) yielded an IC50 (HLA-B07.02; [3]) of 48.6 nM.
Work on `CC(C)C[C@H](NC(=O)CNC(=O)[C@H](CO)NC(=O)[C@H](CC(=O)O)NC(=O)[C@H](CCCCN)NC(=O)[C@H](CO)NC(=O)[C@H](Cc1ccc(O)cc1)NC(=O)[C@H](C)NC(=O)[C@@H]1CCCN1C(=O)[C@@H](N)Cc1ccc(O)cc1)C(=O)O` (H-YPAYSKDSGL-OH; N-terminus and C-terminus assumed) yielded an IC50 (HLA-B07.02; [3]) of 79.5 nM.
`CC(C)C[C@H](NC(=O)[C@@H]1CCCN1C(=O)[C@@H]1CCCN1C(=O)[C@@H](NC(=O)[C@@H](NC(=O)[C@H](Cc1c[nH]c2ccccc12)NC(=O)[C@H](CC(C)C)NC(=O)[C@@H](NC(=O)[C@@H]1CCCN1C(=O)[C@@H](N)CCC(N)=O)C(C)C)[C@@H](C)O)[C@@H](C)O)C(=O)O` (H-QPVLWTTPPL-OH; N-terminus and C-terminus assumed) was tested, and the IC50 (HLA-B07.02; [3]) was 109 nM.
`CC(C)C[C@H](NC(=O)[C@@H]1CCCN1C(=O)[C@@H](N)CCCNC(=N)N)C(=O)N[C@@H](CCC(N)=O)C(=O)N[C@H](C(=O)N[C@@H](Cc1c[nH]cn1)C(=O)N[C@H](C(=O)N[C@@H](CC(C)C)C(=O)N1CCC[C@H]1C(=O)N[C@@H](CCC(=O)O)C(=O)O)C(C)C)[C@@H](C)O` (H-RPLQTHVLPE-OH; N-terminus and C-terminus assumed) was tested, and the IC50 (HLA-B07.02; [3]) was 2530 nM.
With `C[C@H](NC(=O)[C@H](CC(N)=O)NC(=O)[C@@H](NC(=O)[C@@H](NC(=O)[C@@H](N)Cc1ccc(O)cc1)[C@@H](C)O)[C@@H](C)O)C(=O)N[C@@H](Cc1ccccc1)C(=O)N[C@@H](CO)C(=O)NCC(=O)N[C@@H](CCC(=O)O)C(=O)N[C@@H](Cc1ccc(O)cc1)C(=O)O` (H-YTTNAFSGEY-OH; N-terminus and C-terminus assumed) the IC50 (HLA-A01.01; [4]) was 10.5 nM.
For `CC[C@H](C)[C@H](N)C(=O)N[C@@H](CC(C)C)C(=O)N[C@@H](CC(=O)O)C(=O)N[C@H](C(=O)N[C@@H](C)C(=O)NCC(=O)N[C@@H](CCCNC(=N)N)C(=O)N[C@@H](CCC(=O)O)C(=O)N[C@@H](CCC(=O)O)C(=O)N[C@@H](Cc1ccc(O)cc1)C(=O)O)[C@@H](C)O` (H-ILDTAGREEY-OH; N-terminus and C-terminus assumed), the IC50 (HLA-A01.01; Observed Affinity (IC50, (nM)), allele A01.01) was 7 nM.
In the case of `CC[C@H](C)[C@H](NC(=O)[C@H](CCCCN)NC(=O)[C@H](Cc1ccc(O)cc1)NC(=O)[C@@H](NC(=O)[C@@H](NC(=O)[C@H](CC(=O)O)NC(=O)[C@H](CO)NC(=O)[C@H](CCSC)NC(=O)[C@@H](N)C(C)C)[C@@H](C)O)[C@@H](C)O)C(=O)N[C@@H](Cc1ccc(O)cc1)C(=O)O` (H-VMSDTTYKIY-OH; N-terminus and C-terminus assumed), the IC50 (HLA-A01.01) is reported as 376 nM.
Work on `CC(C)C[C@H](NC(=O)[C@H](Cc1ccccc1)NC(=O)[C@H](CO)NC(=O)[C@@H](N)CC(C)C)C(=O)N[C@@H](CO)C(=O)N[C@@H](CO)C(=O)N[C@@H](Cc1c[nH]c2ccccc12)C(=O)N[C@@H](CC(=O)O)C(=O)N[C@@H](Cc1ccc(O)cc1)C(=O)O` (H-LSFLSSWDY-OH; N-terminus and C-terminus assumed) yielded an IC50 (HLA-A01.01; [4]) of 52.9 nM.
Work on `CC(C)[C@H](NC(=O)[C@H](CCC(=O)O)NC(=O)[C@H](CC(N)=O)NC(=O)[C@H](CO)NC(=O)CNC(=O)[C@@H](N)[C@@H](C)O)C(=O)N[C@H](C(=O)N[C@H](C(=O)N[C@@H](CCCNC(=N)N)C(=O)N[C@@H](Cc1ccc(O)cc1)C(=O)O)[C@@H](C)O)[C@@H](C)O` (H-TGSNEVTTRY-OH; N-terminus and C-terminus assumed) yielded an IC50 (HLA-A01.01; [4]) of 15500 nM.
For `CC(C)C[C@H](NC(=O)[C@H](CC(=O)O)NC(=O)[C@H](Cc1ccccc1)NC(=O)[C@@H]1CCCN1C(=O)[C@@H](NC(=O)[C@H](C)NC(=O)[C@@H]1CCCN1C(=O)[C@@H](N)C(C)C)C(C)C)C(=O)N[C@@H](Cc1c[nH]cn1)C(=O)N[C@@H](Cc1ccccc1)C(=O)O` (H-VPAVPFDLHF-OH; N-terminus and C-terminus assumed), the IC50 (HLA-B07.02; [3]) was 2110 nM.
Compound `CC(C)[C@H](NC(=O)[C@H](C)NC(=O)[C@@H]1CCCN1C(=O)[C@@H](NC(=O)[C@H](CCCNC(=N)N)NC(=O)[C@H](C)NC(=O)[C@@H]1CCCN1C(=O)[C@@H]1CCCN1C(=O)CN)C(C)C)C(=O)O` (H-GPPARVPAV-OH; N-terminus and C-terminus assumed) has an IC50 (HLA-B07.02) of 221 nM.
`CSCC[C@H](NC(=O)[C@H](CC(C)C)NC(=O)[C@H](CCC(N)=O)NC(=O)[C@@H](N)CCSC)C(=O)N1CCC[C@H]1C(=O)N[C@@H](Cc1ccccc1)C(=O)NCC(=O)N[C@@H](CS)C(=O)N[C@@H](CC(C)C)C(=O)O` showed a Kd (HLA-A02.01 [1]; EGFR T790M peptides, HLA allele A02.01, read-out: Affinity) of 116 nM, an IC50 (HLA-A02.01 [1]; [5]) of 166 nM and a Kd (HLA-B07.02; EGFR T790M peptides, HLA allele B07.02) of 1590 nM. The “Stability (half-life (hr.))” value (HLA-A02.01 [2]; EGFR T790M peptides, HLA allele A02.01) was 22.1 min and the “Stability (T1/2 (h))” value (HLA-A02.01 [2]) was 0.4 h.
`CC(C)C[C@H](NC(=O)[C@H](C)NC(=O)[C@H](CC(C)C)NC(=O)[C@H](Cc1c[nH]cn1)NC(=O)[C@@H]1CCCN1C(=O)[C@H](CCC(=O)O)NC(=O)[C@@H]1CCCN1C(=O)[C@H](CC(C)C)NC(=O)[C@@H](NC(=O)[C@@H](N)Cc1c[nH]cn1)C(C)C)C(=O)O` [HVLPEPHLAL] (H-HVLPEPHLAL-OH; N-terminus and C-terminus assumed) gave an IC50 (HLA-B07.02; [3]) of 1330 nM.
`C[C@H](NC(=O)[C@H](CC(N)=O)NC(=O)[C@@H](NC(=O)[C@@H](N)[C@@H](C)O)[C@@H](C)O)C(=O)N[C@@H](Cc1ccccc1)C(=O)N[C@@H](CO)C(=O)NCC(=O)N[C@@H](CCC(=O)O)C(=O)N[C@@H](Cc1ccc(O)cc1)C(=O)O` (H-TTNAFSGEY-OH; N-terminus and C-terminus assumed) was tested, and the IC50 (HLA-A01.01; [4]) was 4.4 nM.
With `CC(C)C[C@H](NC(=O)[C@H](CCC(N)=O)NC(=O)[C@H](CC(C)C)NC(=O)[C@H](Cc1c[nH]cn1)NC(=O)[C@H](CC(N)=O)NC(=O)[C@H](CCC(N)=O)NC(=O)[C@H](CCCNC(=N)N)NC(=O)[C@H](CO)NC(=O)[C@@H](N)CCCCN)C(=O)O` (H-KSRQNHLQL-OH; N-terminus and C-terminus assumed) the IC50 (HLA-B07.02; [3]) was 78 nM.
`CC(C)C[C@H](NC(=O)[C@H](CC(C)C)NC(=O)[C@H](Cc1c[nH]cn1)NC(=O)CNC(=O)[C@H](CCC(N)=O)NC(=O)[C@H](CC(N)=O)NC(=O)[C@H](CCC(N)=O)NC(=O)[C@@H](NC(=O)[C@@H](N)CCCNC(=N)N)C(C)C)C(=O)O` (H-RVQNQGHLL-OH; N-terminus and C-terminus assumed) gave an IC50 (HLA-B07.02; [3]) of 826 nM.
`CC[C@H](C)[C@H](NC(=O)[C@H](CC(N)=O)NC(=O)[C@@H](NC(=O)[C@H](CC(=O)O)NC(=O)[C@H](CCCCN)NC(=O)[C@@H]1CCCN1C(=O)[C@@H](N)CCSC)C(C)C)C(=O)N[C@@H](CCC(N)=O)C(=O)N[C@H](C(=O)O)C(C)C` showed an IC50 (HLA-B07.02; [3]) of 12.5 nM.
In the case of `CC(C)C[C@H](NC(=O)[C@@H](NC(=O)[C@H](CO)NC(=O)[C@@H]1CCCN1C(=O)[C@H](CC(C)C)NC(=O)[C@H](Cc1ccccc1)NC(=O)[C@@H](NC(=O)[C@H](Cc1ccc(O)cc1)NC(=O)[C@@H](NC(=O)CN)C(C)C)[C@@H](C)O)[C@@H](C)O)C(=O)O` (H-GVYTFLPSTL-OH; N-terminus and C-terminus assumed), the IC50 (HLA-A02.01 [1]; [5]) is reported as 1200 nM, the IC50 (HLA-A24.02) is reported as 7700 nM and the “Stability (T1/2 (h))” value (HLA-A02.01 [2]) is reported as 0.4 h.
`CSCC[C@H](NC(=O)[C@H](CCC(=O)O)NC(=O)[C@H](CCCNC(=N)N)NC(=O)[C@H](CC(C)C)NC(=O)[C@H](Cc1ccc(O)cc1)NC(=O)[C@H](CC(N)=O)NC(=O)[C@H](CC(C)C)NC(=O)[C@H](CC(C)C)NC(=O)[C@@H](N)CO)C(=O)O` gave an IC50 (HLA-A02.01 [1]; BTK C481S peptide, HLA Allele A02.01, read-out: Affinity) of 67.7 nM, an IC50 (HLA-A02.01 [1]; [5]) of 87 nM and an IC50 (HLA-B07.02; BTK C481S peptide, HLA Allele B07.02, read-out: Affinity) of 866 nM. The “Stability (half-life (hr.))” value (HLA-A02.01 [2]; BTK C481S peptide, HLA Allele A02.01) was 182.6 min and the “Stability (T1/2 (h))” value (HLA-A02.01 [2]) was 3 h.
Work on `CSCC[C@H](NC(=O)[C@H](CCC(=O)O)NC(=O)[C@H](CC(C)C)NC(=O)[C@H](CC(C)C)NC(=O)[C@H](CC(C)C)NC(=O)CNC(=O)[C@H](Cc1ccc(O)cc1)NC(=O)[C@H](CC(C)C)NC(=O)[C@@H]1CCCN1C(=O)[C@@H](N)C(C)C)C(=O)O` (H-VPLYGLLLEM-OH; N-terminus and C-terminus assumed) yielded an IC50 (HLA-B07.02; [3]) of 27.9 nM.
In the case of `CC[C@H](C)[C@H](NC(=O)[C@@H](NC(=O)[C@H](CC(C)C)NC(=O)[C@@H](NC(=O)[C@@H]1CCCN1C(=O)[C@H](CCCNC(=N)N)NC(=O)[C@H](CCCNC(=N)N)NC(=O)[C@H](CC(N)=O)NC(=O)[C@H](CCSC)NC(=O)[C@@H](N)CO)[C@@H](C)CC)[C@@H](C)O)C(=O)O`, the IC50 (HLA-A02.01 [1]; [5]) is reported as 1200 nM, the IC50 (HLA-A24.02) is reported as 16300 nM and the “Stability (T1/2 (h))” value (HLA-A02.01 [2]) is reported as 0.3 h.
With `C[C@H](NC(=O)[C@H](C)NC(=O)[C@H](CCCNC(=N)N)NC(=O)[C@@H]1CCCN1C(=O)[C@@H]1CCCN1C(=O)[C@H](CCCNC(=N)N)NC(=O)[C@@H]1CCCN1C(=O)[C@@H]1CCCN1)C(=O)N[C@@H](CS)C(=O)O` (H-PPRPPRAAC-OH; N-terminus and C-terminus assumed) the IC50 (HLA-B07.02; [3]) was 32.8 nM.
